Columns and labels:
Format in all cases: in vivo
SD mice = assay: Anaphylaxis reaction caused by C48/80: mortality; settings: pantoprazole 10 mg/kg tail vein 30 minutes before C48/80 10 mg/kg tail vein; survival for one hour
Description: SD mice weighing 200-220 g were divided into three groups consisting of a negative control group, a positive control group and a test group, each group consisting of eight animals.
30 minutes after this pretreatment, the negative control group was injected with a phosphate buffer saline through the tail vein, the positive control group and the test group were injected with 10 mg/kg of C48/80 through the tail vein. After the injection, the number of individuals died of anaphylaxis reaction caused by C48/80 was observed. The standard of death and survival was determined by whether or not the animals survive for one hour after C48/80 administration.

BALBc male mice [1] = assay: Ovalbumin-induced allergic rhinitis: symptom score; settings: 7 days, sneezing and nose scratching counted for 15 minutes
Description: 3-week-old BALBc male mice weighing 15-25 g were divided into four groups each comprising 6 or 7 animals, and then bred in a specific pathogen-free (SPF) environment for 35 days. In order to induce allergic rhinitis, 10 μg of ovalbumin (grade V, Sigma Chemical Co., Phillipsberg, N.Y.) and 1 mg of aluminum hydroxide (Al(OH)3) gel were mixed with 0.3 ml phosphate buffered saline for at least 30 minutes to prepare an ovalbumin mixture. 0.1 ml of the mixture was injected into the abdominal cavity of the mice, and each at 5, 14 and 21 days later, injected once more into the abdominal cavity. At one week after the final injection into the abdominal cavity (28 days later), 30 μl phosphate buffered saline or a mixture of 100 μg ovalbumin with 30 μl phosphate buffered saline was administered into the nasal cavity using a micropipette. […] Then, in each mouse, the number of expression of characteristic symptoms of allergic rhinitis, i.e., the number of expression of symptoms, such as sneezing and the action of scratching the nose, was measured for 15 minutes after a given period, and their sum was recorded as a symptom score. The symptom score was recorded as the mean of scores measured by two observers, and scores having at least 30% difference between the two observers were excluded.

BALBc male mice [2] = assay: Ovalbumin-induced allergic rhinitis: eosinophil number in nasal mucosa (histology); settings: under mucosa of anterior inferior turbinate, 400× magnification
Description: 3-week-old BALBc male mice weighing 15-25 g were divided into four groups each comprising 6 or 7 animals, and then bred in a specific pathogen-free (SPF) environment for 35 days. In order to induce allergic rhinitis, 10 μg of ovalbumin (grade V, Sigma Chemical Co., Phillipsberg, N.Y.) and 1 mg of aluminum hydroxide (Al(OH)3) gel were mixed with 0.3 ml phosphate buffered saline for at least 30 minutes to prepare an ovalbumin mixture. 0.1 ml of the mixture was injected into the abdominal cavity of the mice, and each at 5, 14 and 21 days later, injected once more into the abdominal cavity. At one week after the final injection into the abdominal cavity (28 days later), 30 μl phosphate buffered saline or a mixture of 100 μg ovalbumin with 30 μl phosphate buffered saline was administered into the nasal cavity using a micropipette. […] The administration of ovalalbumin into the nasal cavity and the pretreatment with the drugs before this administration were performed for 7 days, one time a day, and the next day after the administration for 7 days, the mice of all the groups was euthanized by inhalation with carbonic acid gas. […] The measured results were statistically analyzed by the Mann-Whitney U-test, using SPSS for Windows version 10 (SPSS Inc., Chicago), and were determined to be statistically significant at p<0.05.

COc1ccnc(C[S+]([O-])c2nc3ccc(OC(F)F)cc3[nH]2)c1OC (centres unmarked) [Inventive composition, pantoprazole]
Mortality (number of dead individuals/number of total individuals) (SD mice): 4/8
Symptom score, Mean (BALBc male mice [1]; pantoprazole 10 mg/kg into abdominal cavity 30 minutes before nasal ovalbumin): 27.29
Symptom score, Mean (BALBc male mice [1]; pantoprazole 100 mg/kg into abdominal cavity 30 minutes before nasal ovalbumin): 48.00
eosinophil number (row printed as Symptom score), Mean (BALBc male mice [2]; pantoprazole 10 mg/kg): 5.57
eosinophil number (row printed as Symptom score), Mean (BALBc male mice [2]; pantoprazole 100 mg/kg): 4.29
